Measured values as given in BigSolDB 2.1.

COCCOC(=O)C1=C(C)NC(C)=C(C(=O)OC(C)C)C1c1cccc([N+](=O)[O-])c1 (centres undefined)
solubility (mole fraction)
Settings	278.15 K	283.15 K	288.15 K	293.15 K	298.15 K	303.15 K	308.15 K	313.15 K	318.15 K
in THF	0.0141	0.016	0.0181	0.0203	0.0229	0.0259	0.0291	0.0324	0.0366
in acetone	0.012	0.0136	0.0154	0.0171	0.0193	0.0217	0.0241	0.027	0.0295
in acetonitrile	0.00161	0.00191	0.00225	0.00267	0.00311	0.00365	0.00437	0.00503	0.00587
in cyclohexanone	0.0145	0.0164	0.0184	0.021	0.0239	0.0266	0.0297	0.0334	0.0375
in ethanol	0.014	0.0158	0.0176	0.0198	0.0221	0.0247	0.0272	0.0303	0.034
in ethyl acetate	0.00127	0.00145	0.0017	0.00192	0.00221	0.00248	0.0028	0.0032	0.00364
in ethyl formate	0.00152	0.0017	0.00192	0.00218	0.00247	0.00275	0.00305	0.00341	0.00381
in isobutanol	0.00706	0.00811	0.00923	0.0107	0.0122	0.0137	0.0156	0.0179	0.0201
in isopentanol	0.00609	0.00711	0.00815	0.00953	0.011	0.0126	0.0142	0.0166	0.0188
in isopropanol	0.0117	0.0132	0.0147	0.0163	0.0183	0.0204	0.0225	0.0249	0.0278
in methanol	0.0157	0.0178	0.0201	0.0229	0.0259	0.0289	0.0327	0.0364	0.0411
in methyl acetate	0.00456	0.00506	0.00573	0.00647	0.00718	0.00813	0.00898	0.00997	0.0112
in n-butanol	0.0106	0.0117	0.013	0.0145	0.0161	0.0177	0.0195	0.0217	0.0237
in n-pentanol	0.00802	0.00919	0.0103	0.0116	0.0131	0.0145	0.0162	0.018	0.0203
in n-propanol	0.011	0.0123	0.0139	0.0155	0.0173	0.0195	0.0216	0.0241	0.0269
in sec-butanol	0.00977	0.0111	0.0122	0.0134	0.0149	0.0167	0.0181	0.0198	0.022
